Experimental data published in patent US5061711A, “Method of curing liver diseases by using pyrrolo quinoline quinone triesters and novel pyrrolo quinoline quinone triesters” (Mitsubishi Gas Chemical Company, Inc., priority 1989, dated 1991).

Columns and labels:
Assay type in all cases: in vivo, SD rats
[1] = test system: carbon tetrachloride (CCl4)-induced liver diseases; experiment: Pharmacological activity (1) on carbon tetrachloride (CCl4)-induced liver diseases; settings: i.p. 5 mg/kg rat twice, CCl4 1 ml/kg rat, 24 hours, average of five rats; for Total bilirubin in serum: CCl4 alone 1.2; for GPT in serum: CCl4 alone 818; for GOT in serum: CCl4 alone 3308
Procedure: Pharmacological activity (1) of PQQ triesters on carbon tetrachloride (CCl4)-induced liver diseases:
Twenty SD rats (male, 7 weeks old, body weight: about 220 g; supplied by Japan Charles River Co.) were divided to four groups (A-D) each consisting of five rats. All rats were fasted for 16 hours and 1.1 ml of a solution containing 1 mg/ml of PQQ trimethyl ester was intraperitoneally administered to the rats of group C and 1.1 ml of a solution containing 1 mg/ml of PQQ triallyl ester was intraperitoneally administered to the rats of group D and after lapse of 40 minutes, the same PQQ triesters in the same dose as above was intraperitoneally administered, respectively. For administration, the PQQ triesters were suspended in physiological saline containing 1 % Tween 80, 1.1 ml of physiological saline was intraperitoneally administered to the rats of group B in place of PQQ triesters. Furthermore, after 20 minutes, 2.2 ml of 10 vol% carbon tetrachloride (solution in olive oil) was administered to stomach of the rats of groups B-D. Neither PQQ triesters nor carbon tetrachloride were administered to the rats of group A.
(§1) After 24 hours from administration of carbon tetrachloride, blood was collected from abdominal main artery and serum was obtained by centrifugation therefrom.
GPT, GOT and amount of total bilirubin in the serum were measured by clinical examination reagent (trademark: FUJI DRYCHEMSLIDE manufactured by Fuji Photo Film Co., Ltd.). The results are shown in Table 5 by average value of five rats.

[2] = test system: carbon tetrachloride (CCl4)-induced liver diseases; experiment: Pharmacological activity (2) on carbon tetrachloride (CCl4)-induced liver diseases; settings: CCl4 1 ml/kg rat i.p., 24 hours, average of five rats; for Total bilirubin in serum: CCl4 alone 0.9; for GPT in serum: CCl4 alone 949; for GOT in serum: CCl4 alone 1970
Procedure: Pharmacological activity (2) of PQQ triesters on carbon tetrachloride (CCl4)-induced liver diseases:
Forty SD rats (male, 7 weeks old, body weight: about 260 g; supplied by Japan Charles River Co.) were divided to eight groups (A-H) each consisting of five rats. All rats were fasted for 18 hours and 1.3 ml of a solution containing 2 mg/ml of PQQ trimethyl ester was intraperitoneally administered to the rats of group C, 1.3 ml of a solution containing 10 mg/ml of PQQ trimethyl ester was intraperitoneally administered to the rats of group D, 1.3 ml of a solution containing 20 mg/ml of PQQ trimethyl ester was intraperitoneally administered to the rats of group E, 1.3 ml of a solution containing 2 mg/ml of PQQ triallyl ester was intraperitoneally administered to the rats of group F, 1.3 ml of a solution containing […] was intraperitoneally administered to the rats of group G, and 1.3 ml of a solution containing 20 mg/ml of PQQ triallyl ester was intraperitoneally administered to the rats of group H and furthermore, after lapse of 50 minutes, the same PQQ triesters in the same doses as above were intraperitoneally administered to respective rats. In these cases, the PQQ triesters were suspended in physiological saline containing 1% Tween 80 and administered to the rats. 1.3 ml of physiological saline was intraperitoneally administered to the rats of group B in place of PQQ triesters. […] Neither PQQ triesters nor carbon tetrachloride were administered to the rats of group A.
as §1
GPT, […] and amount of total bilirubin in the serum were measured by clinical examination reagent (trademark: FUJI DRYCHEMSLIDE manufactured by Fuji Photo Film Co., Ltd.). The results are shown in Table 6 by average value of five rats.

[3] = test system: D-galactosamine-induced liver diseases; experiment: Pharmacological effect (1) on D-galactosamine-induced liver diseases; settings: D-galactosamine 1 g/kg rat s.c., 23 hours, average of five rats; for Total bilirubin in serum: D-galactosamine alone 1.0; for GPT in serum: D-galactosamine alone 552; for GOT in serum: D-galactosamine alone 1067
Procedure: Pharmacological effect (1) of PQQ triesters on D-galactosamine-induced liver diseases;
Forty SD rats (male 7 weeks old, body weight: about 240 g; supplied by Japan Charles River Co.) were divided to eight groups (A-H) each consisting of five rats. All rats were fasted for 16 hours and 1.2 ml of a solution containing 0.4 mg/ml of PQQ trimethyl ester was intraperitoneally administered to the rats of group C, 1.2 ml of a solution containing 1.0 mg/ml of PQQ trimethyl ester was intraperitoneally administered to the rats of group D, 1.2 ml of a solution containing 2.0 mg/ml of PQQ trimethyl ester was intraperitoneally administered to the rats of group E, 1.2 ml of a solution containing 0.4 mg/ml of PQQ triallyl ester was intraperitoneally administered to the rats of group F, 1.2 ml of a solution containing 1.0 mg/ml of PQQ triallyl ester was intraperitoneally administered to the rats of group G, and 1.2 ml of a solution containing 2.0 mg/ml of PQQ triallyl ester was intraperitoneally administered to the rats of group H and furthermore, after 40 minutes, the same PQQ triesters in the same doses as above were intraperitoneally administered to respective rats. In these cases, the PQQ triesters were suspended in physiological saline containing 1% Tween 80 and administered to the rats. 1.2 ml of physiological saline was intraperitoneally administered to the rats of group B in place of PQQ triesters. Furthermore, after 20 minutes, 1.2 ml of a solution of 2 g of D-galactosamine in 10 ml of physiological saline was subcutaneously injected to the rats of groups B-H. Neither PQQ triesters nor D-galactosamine were administered to the rats of group A.
After 23 hours from administration of D-galactosamine, blood was collected from abdominal main artery and serum was obtained by centrifugation therefrom.
GPT, GOT and amount of total bilirubin in the serum were measured by clinical examination reagent (trademark: FUJI DRYCHEMSLIDE manufactured by Fuji Photo Film Co., Ltd.). The results are shown in Table 7 by average value of five rats.

Compound | Total bilirubin in serum [1] [mg/dL] | GPT in serum [1] [U/l] | GOT in serum [1] [U/l] | Total bilirubin in serum ([2]; i.p. 10 mg/kg rat twice) [mg/dL] | GPT in serum ([2]; i.p. 10 mg/kg rat twice) [U/l] | GOT in serum ([2]; i.p. 10 mg/kg rat twice) [U/l] | Total bilirubin in serum ([2]; i.p. 50 mg/kg rat twice) [mg/dL] | GPT in serum ([2]; i.p. 50 mg/kg rat twice) [U/l] | GOT in serum ([2]; i.p. 50 mg/kg rat twice) [U/l] | Total bilirubin in serum ([2]; i.p. 100 mg/kg rat twice) [mg/dL] | GPT in serum ([2]; i.p. 100 mg/kg rat twice) [U/l] | GOT in serum ([2]; i.p. 100 mg/kg rat twice) [U/l] | Total bilirubin in serum ([3]; i.p. 2 mg/kg rat twice) [mg/dL] | GPT in serum ([3]; i.p. 2 mg/kg rat twice) [U/l] | GOT in serum ([3]; i.p. 2 mg/kg rat twice) [U/l] | Total bilirubin in serum ([3]; i.p. 5 mg/kg rat twice) [mg/dL] | GPT in serum ([3]; i.p. 5 mg/kg rat twice) [U/l] | GOT in serum ([3]; i.p. 5 mg/kg rat twice) [U/l] | Total bilirubin in serum ([3]; i.p. 10 mg/kg rat twice) [mg/dL] | GPT in serum ([3]; i.p. 10 mg/kg rat twice) [U/l] | also measured
C=CCOC(=O)c1cc(C(=O)OCC=C)c2c(n1)C(=O)C(=O)c1cc(C(=O)OCC=C)[nH]c1-2 [PQQ triallyl ester] | 0.8 | 371 | 2150 | 0.7 | 323 | 1186 | 0.7 | 583 | 1270 | 0.8 | 576 | 1563 | 0.8 | 538 | 1132 | 0.8 | 322 | 648 | 0.6 | 120 | GOT in serum ([3]; i.p. 10 mg/kg rat twice): 480 U/l
COC(=O)c1cc(C(=O)OC)c2c(n1)C(=O)C(=O)c1cc(C(=O)OC)[nH]c1-2 [PQQ trimethyl ester] | 0.7 | 505 | 2193 | 0.9 | 479 | 1263 | 0.7 | 645 | 1543 | 0.8 | 676 | 1605 | 0.9 | 447 | 970 | 0.5 | 182 | 544 | 0.7 | 388 | GOT in serum ([3]; i.p. 10 mg/kg rat twice): 833 U/l
